Assays:
[1] = molecular target: T1, AIG1 (androgen induced gene 1) (Mus musculus, UniProt Q9D8B1); experiment: competitive gel-based ABPP (FP-Rh) in mouse brain membrane proteome; also MS-based ABPP and in vivo target engagement; format: biochemical
T1 construct: endogenous AIG1 in mouse brain membrane proteome
T1 sequence (Q9D8B1 1-238): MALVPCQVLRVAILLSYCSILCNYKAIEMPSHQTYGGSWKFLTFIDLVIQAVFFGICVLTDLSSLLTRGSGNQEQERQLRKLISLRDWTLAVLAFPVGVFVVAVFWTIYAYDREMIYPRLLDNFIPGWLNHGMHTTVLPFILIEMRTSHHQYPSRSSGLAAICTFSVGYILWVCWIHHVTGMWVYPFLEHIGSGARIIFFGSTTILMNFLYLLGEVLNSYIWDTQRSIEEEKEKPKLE

ABHD6 = molecular target: T2, ABHD6 (Mus musculus, UniProt Q8R2Y0); experiment: competitive MS-based ABPP-ReDiMe (FP-biotin) in mouse brain proteome (off-target); format: cell-based
T2 construct: endogenous ABHD6 in mouse brain proteome
T2 sequence (Q8R2Y0 1-336): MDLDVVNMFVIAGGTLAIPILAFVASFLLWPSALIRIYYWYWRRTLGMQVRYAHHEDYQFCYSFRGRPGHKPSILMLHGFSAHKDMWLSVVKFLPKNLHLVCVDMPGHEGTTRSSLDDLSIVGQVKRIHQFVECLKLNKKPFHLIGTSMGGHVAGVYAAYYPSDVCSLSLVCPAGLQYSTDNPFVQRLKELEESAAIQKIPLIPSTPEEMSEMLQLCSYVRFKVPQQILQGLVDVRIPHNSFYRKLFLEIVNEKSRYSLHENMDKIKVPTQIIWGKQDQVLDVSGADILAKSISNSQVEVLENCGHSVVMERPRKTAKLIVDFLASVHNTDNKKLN

CN(c1ccn(C(=O)N2CCc3ccc(Oc4ccccc4)cc3C2)n1)S(C)(=O)=O [ABD-110, N-methyl-N-(1-(7-phenoxy-1,2,3,4-tetrahydroisoquinoline-2-carbonyl)-1H-pyrazol-3-yl)methanesulfonamide] was tested, and the IC50 [1] was 1.6 nM and the “competitive MS-based ABPP-ReDiMe (FP-biotin) in mouse brain proteome (off-target)” value (ABHD6) was “with only a few off-targets detected, including ABHD6 and several highly homologous, mouse-specific carboxylesterases (CESs)”.
